Drawing on patent US12565489B2, “Heterocyclyl pyrimidines and triazines as novel fungicides” (Bayer Aktiengesellschaft, priority 2020, dated 2026), this text covers pest or weed control, chromatographic logP and inhibition for 14 compounds.

For one series, the system named is Alternaria brassicae. The series can be described thus: In vivo preventive test on Alternaria brassicae (leaf spot on radish or cabbage). Conditions: 144 h, 500 ppm of active ingredient, preventive spray on young radish or cabbage plants, evaluated 6 days after inoculation, read-out: efficacy. The method, then: The active ingredients were made soluble and homogenized in a mixture of Dimethyl sulfoxide/Acetone//Tween®80 and then diluted in water to the desired concentration. The young plants of radish or cabbage were treated by spraying the active ingredient prepared as described above. Control plants were treated only with an aqueous solution of Acetone/Dimethyl sulfoxide/Tween® 80. After 24 hours, the plants were contaminated by spraying the leaves with an aqueous suspension of Alternaria brassicae spores.

Series [1] is described as follows: Measurement of Log P values by HPLC on reversed phase columns (EEC directive 79/831 Annex V.A8). The class given is physicochemical. Conditions: LogP. Here is the method:
Measurement of Log P values as provided herein was performed according to EEC directive 79/831 Annex V.A8 by HPLC (High Performance Liquid Chromatography) on reversed phase columns with the following methods: • ^[a] Log P value is determined by measurement of LC-UV, in an acidic range, with 0.1% formic acid in water and acetonitrile as eluent (linear gradient from 10% acetonitrile to 95% acetonitrile). • ^[b] Log P value is determined by measurement of LC-UV, in a neutral range, with 0.001 molar ammonium acetate solution in water and acetonitrile as eluent (linear gradient from 10% acetonitrile to 95% acetonitrile). • ^[c] Log P value is determined by measurement of LC-UV, in an acidic range, with 0.1% phosphoric acid and acetonitrile as eluent (linear gradient from 10% acetonitrile to 95% acetonitrile).
If more than one Log P value is available within the same method, all the values are given and separated by “+”.
Calibration was done with straight-chain alkan2-ones (with 3 to 16 carbon atoms) with known Log P values (measurement of Log P values using retention times with linear interpolation between successive alkanones). Lambda-max-values were determined using UV-spectra from 200 nm to 400 nm and the peak values of the chromatographic signals

For another series, the system named is Sphaerotheca fuliginea. The series can be described thus: In vivo preventive test on Sphaerotheca fuliginea (powdery mildew on cucurbits). Conditions: Podosphaera fuliginea, 192 h; 500 ppm of active ingredient; preventive spray on young gherkin plants; evaluated 8 days after inoculation; read-out: efficacy. The method, then:
The active ingredients were made soluble and homogenized in a mixture of Dimethyl sulfoxide/Acetone//Tween®80 and then diluted in water to the desired concentration. The young plants of gherkin were treated by spraying the active ingredient prepared as described above. Control plants were treated only with an aqueous solution of Acetone/Dimethyl sulfoxide/Tween® 80. After 24 hours, the plants were contaminated by spraying the leaves with an aqueous suspension of Sphaerotheca fuliginea spores.

The test system of series [2] is Botrytis cinerea. As to the kind of experiment: Botrytis cinerea in vitro cell test. It is filed as cell-based. The conditions noted are these: 144 h, 20 ppm of active ingredient, 6 days incubation, liquid culture, spectrometric measurement of mycelium growth, read-out: efficacy (inhibition of fungal growth). Here is the method:
(§1) • Solvent: DMSO • Culture medium: 1 g KH2PO4 (VWR), 1 g K2HPO4 (VWR), 0.5 g Urea (VWR), 3 g KNO3 (Prolabo), 10 g saccharose (VWR), 0.5 g MgSO4, 7H2O (Sigma), 0.07 g CaCl2, 2H2O (Prolabo), 0.2 mg MnSO4, H2O (Sigma), 0.6 mg CuSO4, 5H2O (Sigma), 7.9 mg ZnSO4, 7H2O (Sigma), 0.1 mg H3BO3 (Merck), 0.14 mg NaMoO4, 2H2O (Sigma), 2 mg thiamine (Sigma), 0.1 mg biotine (VWR), 4 mg FeSO4, 7H2O (Sigma), QSP 1 liter • Inoculum: spore suspension Fungicides were solubilized in DMSO and the solution used to prepare the required range of concentrations. […] A spore suspension of B. cinerea was prepared and diluted to the desired spore density. Fungicides were evaluated for their ability to inhibit spore germination and mycelium growth in liquid culture assay. The compounds were added in the desired concentration to the culture medium with spores. After 6 days incubation, fungi-toxicity of compounds was determined by spectrometric measurement of mycelium growth. Inhibition of fungal growth was determined by comparing the absorbance values in wells containing the fungicides with the absorbance in control wells without fungicides.

The next series relates to Alternaria alternata. The series can be described thus: Alternaria alternata in vitro cell test. It is filed as cell-based. Conditions: 120 h, 20 ppm of active ingredient, 5 days incubation, liquid culture, spectrometric measurement of mycelium growth, read-out: efficacy (inhibition of fungal growth). The method, then:
(§2) • Solvent: DMSO • Culture medium: 14.6 g anhydrous D-glucose (VWR), 7.1 g Mycological Peptone (Oxoid), 1.4 g granulated Yeast Extract (Merck), QSP 1 liter • Inoculum: spore suspension Fungicides were solubilized in DMSO and the solution used to prepare the required range of concentrations. […] A spore suspension of A. alternata was prepared and diluted to the desired spore density. Fungicides were evaluated for their ability to inhibit spore germination and mycelium growth in liquid culture assay. The compounds were added in the desired concentration to the culture medium with spores. After 5 days incubation, fungi-toxicity of compounds was determined by spectrometric measurement of mycelium growth. Inhibition of fungal growth was determined by comparing the absorbance values in wells containing the fungicides with the absorbance in control wells without fungicides.

Series [3] concerns Colletotrichum lindemuthianum. The series can be described thus: In vivo preventive test on Colletotrichum lindemuthianum (leaf spot on bean). The conditions noted are these: 168 h, 500 ppm of active ingredient, preventive spray on young bean plants, evaluated 7 days after inoculation, read-out: efficacy. The method, then: The active ingredients were made soluble and homogenized in a mixture of Dimethyl sulfoxide/Acetone//Tween®80 and then diluted in water to the desired concentration. The young plants of bean were treated by spraying the active ingredient prepared as described above. Control plants were treated only with an aqueous solution of Acetone/Dimethyl sulfoxide/Tween® 80. After 24 hours, the plants were contaminated by spraying the leaves with an aqueous suspension of Colletotrichum lindemuthianum spores.

The test system of series [4] is Colletotrichum lindemuthianum. As to the kind of experiment: Colletotrichum lindemuthianum in vitro cell test. The class given is cell-based. Conditions: 144 h, 20 ppm of active ingredient, 6 days incubation, liquid culture, spectrometric measurement of mycelium growth, read-out: efficacy (inhibition of fungal growth). Here is the method:
as §2, with “of C. lindemuthianum” for “of A. alternata”, “inhibit spores” for “inhibit spore”, “After 6” for “After 5”

Series [5] concerns Botrytis cinerea. The series can be described thus: In vivo preventive test on Botrytis cinerea (grey mould). The conditions noted are these: 500 ppm of active ingredient, preventive spray on young gherkin or cabbage plants, evaluated 4 to 5 days after inoculation, read-out: efficacy. The method, then: The active ingredients were made soluble and homogenized in a mixture of Dimethyl sulfoxide/Acetone//Tween®80 and then diluted in water to the desired concentration. The young plants of gherkin or cabbage were treated by spraying the active ingredient prepared as described above. Control plants were treated only with an aqueous solution of Acetone/Dimethyl sulfoxide/Tween® 80. After 24 hours, the plants were contaminated by spraying the leaves with an aqueous suspension of Botrytis cinerea spores.

A further series has as its system Pyrenophora teres. As to the kind of experiment: Pyrenophora teres in vitro cell test. It is filed as cell-based. Conditions: 144 h, 20 ppm of active ingredient, 6 days incubation, liquid culture, spectrometric measurement of mycelium growth, read-out: efficacy (inhibition of fungal growth). Here is the method: as §2, with “P. teres” for “A. alternata”, “6” for “5”

For a further series, the system named is Septoria tritici. As to the kind of experiment: Septoria tritici in vitro cell test. Conditions: Zymoseptoria tritici, 168 h; 20 ppm of active ingredient; 7 days incubation; liquid culture, spectrometric measurement of mycelium growth; read-out: efficacy (inhibition of fungal growth). The class given is cell-based. Here is the method:
as §1, with “S. tritici” for “B. cinerea”, “After 6 days incubation, fungi-toxicity of compounds was determined by spectrometric measurement of mycelium growth.” left out

As to `Cc1ccc(C[C@@H]2CON=C(c3nc(C)ncc3Oc3cccc(OC(F)F)c3)N2)c(C)c1` (racemic) [Compound I-007], the pest or weed control at 500 ppm (with Alternaria brassicae; in the series on Sphaerotheca fuliginea; in series [3]; in the series with Botrytis cinerea [5]) was 90 to 100% each time. In series [1], the chromatographic logP was 3.94. In addition, the inhibition at 20 ppm was 90 to 100% in the series on Botrytis cinerea [2], 70 to 79% in the series with Alternaria alternata, 90 to 100% in [4] and 90 to 100% in the series with Pyrenophora teres.
Consider `COc1ccc(C[C@@H]2CON=C(c3nc(C)ncc3Oc3cccc(C(F)(F)F)c3)N2)c(Cl)c1` (racemic) [Compound I-012], for which the pest or weed control at 500 ppm (in the series with Alternaria brassicae; in the series on Sphaerotheca fuliginea; in series [3]; with Botrytis cinerea [5]) was 90 to 100% each time. This compound showed a chromatographic logP in series [1] of 4.08. Also, the inhibition at 20 ppm in the series on Botrytis cinerea [2] and in the series on Pyrenophora teres was 90 to 100% throughout.
Turning to `Cc1ncc(Oc2cccc(C(F)(F)F)c2)c(C2=NOC[C@@H](Cc3csc(C(F)(F)F)c3)N2)n1` (racemic) [Compound I-015], the pest or weed control at 500 ppm in the series on Alternaria brassicae was in the range of 80 to 89%; with Sphaerotheca fuliginea, 80 to 89%; in [3] it was 90 to 100%; in the series with Botrytis cinerea [5], 70 to 79%. Moreover, the chromatographic logP in series [1] is 4.17. Besides, the inhibition at 20 ppm in the series on Botrytis cinerea [2] was in the range of 90 to 100%; in the series on Alternaria alternata, 70 to 79%; in series [4] it was 90 to 100%; in the series on Pyrenophora teres, 90 to 100%.
For `CSc1ncc(Oc2cccc(C(F)(F)F)c2)c(C2=NOC[C@@H](Cc3ccc(C)cc3Cl)N2)n1` (racemic) [Compound I-020], the pest or weed control at 500 ppm with Alternaria brassicae, in the series with Sphaerotheca fuliginea and with Botrytis cinerea [5] was 90 to 100% in each case. In addition, the inhibition at 20 ppm in the series with Septoria tritici was 70 to 79%; with Botrytis cinerea [2], 90 to 100%; in [4], 90 to 100%; in the series on Pyrenophora teres it was 90 to 100%. The compound also registered a chromatographic logP in series [1] of 5.14.
In turn, `Cc1ccc([C@@H]2CON=C(c3nc(C)ncc3Oc3cccc(Cl)c3)N2)c(C)c1` (racemic) [Compound I-034] yielded a chromatographic logP in series [1] of 3.8. The inhibition at 20 ppm in the series on Botrytis cinerea [2] fell in the range of 90 to 100%; in the series on Alternaria alternata it was 90 to 100%; in [4], 70 to 79%; in the series with Pyrenophora teres, 90 to 100%.
`C=Cc1cccc(Oc2cnc(C)nc2C(=O)O)c1` [Compound 1-06] had a chromatographic logP in series [1] of 1.87.
`Cc1ncc(Oc2cccc(C3CC3)c2F)c(C(=O)O)n1` [Compound 1-07] registered a chromatographic logP in [1] of 2.2.
Same read-out and setting: then `Cc1ncc(Oc2cccc(Cl)c2F)c(C(=O)O)n1` [Compound 1-08], with 1.91; and `Cc1ncc(Oc2cccc(Cl)c2)c(C#N)n1` [Compound 16-01], with 3.07.
Same read-out and setting: then `Cc1ncc(Oc2cccc(Cl)c2)c(C(N)=NO)n1` [Compound 17-01, 5-(3-chlorophenoxy)-N′-hydroxy-2-methyl-pyrimidine-4-carboxamidine], with 1.66; and `Cc1ncc(Oc2cccc(Cl)c2)c(C(N)=NOCC(=O)c2ccc3c(c2)CCC3)n1` [Compound 19-01], with 4.15.
The same measure, in the same setting: then `Cc1ncc(Oc2cccc(Cl)c2)c(C(N)=NOCC(=O)c2ccc3c(c2)OCCO3)n1` [Compound 19-02], with 3.12; and `Cc1ncc(Oc2cccc(Cl)c2)c(C(N)=NOC(C)(C)C(=O)c2ccc(F)cc2F)n1` [Compound 19-03], with 3.41.
Take `COC(=N)c1nc(C)ncc1Oc1cccc(Cl)c1` [Compound 20-01, methyl 5-(3-chlorophenoxy)-2-methyl-pyrimidine-4-carboximidate]: the chromatographic logP in [1] was 2.19.

In general, chromatographic logP refers to lipophilicity estimated from chromatographic retention. Low readings indicate lower lipophilicity, high ones higher lipophilicity. Broadly, the inhibition is the drop in the measured response relative to a control, in per cent.
